How the values were obtained:
[1] = molecular target: T1, L1196M EML4-ALK (NIH-3T3 EML4-ALK v1 L1196M cells) (Homo sapiens, UniProt Q9UM73, L1196M); experiment: Cellular phospho-ALK (Tyr1604) ELISA assay for L1196M EML4-ALK; assay type: cell-based; conditions: NIH-3T3 EML4-ALK v1 L1196M cells, 1 hour, phospho-ALK (Tyr1604); read-out: ELISA assay for L1196M EML4-ALK (IC50)
T1 construct: expressed in transfected cells; the other entry of the earlier key: EML4 (Q9HC35, Echinoderm microtubule-associated protein-like 4)

[2] = molecular target: T2, WT EML4-ALK (NIH-3T3 EML4-ALK wt v1 cells) (Homo sapiens, UniProt Q9UM73); experiment: Cellular phospho-ALK (Tyr1604) ELISA assay for WT EML4-ALK; assay type: cell-based; conditions: 1 hour, read-out: ELISA assay for WT EML4-ALK (IC50)
T2 construct: expressed in transfected cells; the other entry of the earlier key: EML4 (Q9HC35, Echinoderm microtubule-associated protein-like 4)
Method: Cellular Phospho-ALK (Tyr1604) ELISA Assay for EML4-ALK:
The cells were maintained at 37° C. in a 5% CO2 incubator in DMEM (Invitrogen, Carlsbad, Calif.) medium supplemented with 1% L-glutamine, 1% penicillin and streptomycin, 1 ug/ml puromycin and 10% new born calf serum (NCS) in T-75 flasks.
Cells were washed with PBS and re-suspended in DMEM medium supplemented with 0.5% NCS and 1% pen/strep and seeded into 96-well plates at density of 20,000 cells/well/100 μl and incubated in the incubator at 37° C. and 5% CO2. After 20 hours of incubation, 100 μl of assay media (DMEM) in presence of designated PF-compounds concentrations or controls (DMSO) were added into plates and incubated for 1 hour in the incubator. Media was then removed and lysis buffer, containing phosphatase inhibitors and phenylmethanesulfonyl fluoride (PMSF), was added to wells and shaken at 4° C. for 30 minutes to generate protein lysates.
A phospho-ALK (Tyr1604) rabbit antibody was coated onto the 96-well microplates. 50 μl of cell lysates were added to the antibody coated plate and incubated at room temperature for 2 hours. Following extensive washing with 0.1% Tween 20 in PBS to remove unbound materials, ALK mouse mAb was added to detect captured phospho-ALK (Tyr1604) and phospho-ALK fusion proteins. Anti-mouse IgG, HRP-linked antibody was then used to recognize the bound detection antibody. Finally, the chemiluminescent reagent was added and incubated for 10 minutes for signal development. The assay plates were read in the Envision plate reader in the luminescent mode. IC50 values were calculated by a concentration-response curve fitting using a four-parameter analytic method.

[3] = molecular target: T3, human recombinant L1196M ALK kinase domain (amino acids 1093-1411) (Homo sapiens, UniProt Q9UM73, L1196M); experiment: L1196M mutant ALK enzyme assay (microfluidic mobility shift); assay type: biochemical; conditions: ATP 60 μM, 0.5 nM enzyme, competitive inhibition fit; read-out: L1196M ALK enzyme assay (Ki)
T3 construct: ALK kinase domain (amino acids 1093-1411); made in house

[4] = molecular target: T4, human recombinant wild-type ALK kinase domain (amino acids 1093-1411) (Homo sapiens, UniProt Q9UM73); experiment: Wild-type ALK enzyme assay (microfluidic mobility shift); assay type: biochemical; conditions: ATP 60 μM, competitive inhibition fit, read-out: WT ALK enzyme assay (Ki)
T4 construct: ALK kinase domain (amino acids 1093-1411); made in house
Method: The reactions were incubated for 1 h at room temperature, stopped by the addition of 0.1 M EDTA, pH 8, and the extent of reactions (˜15-20% conversion with no inhibitor) was determined after electrophoretic separation of the fluorescently labeled peptide substrate and phosphorylated product on an LabChip EZ Reader II (Caliper Life Sciences, Hopkinton, Mass.).

SMILES | IC50 [1] | IC50 [2] | Ki [3] | Ki [4]
COc1nccc2c1-c1cnc(N)c(c1)O[C@H](C)c1cc(F)ccc1C(=O)N(C)C2 [Example 34, (11R)-8-amino-13-fluoro-4-methoxy-11,17-dimethyl-17,18-dihydro-9,5-(metheno)pyrido[3,4-h][2,5,11]benzoxadiazacyclotetradecin-16(11H)-one] | 890 nM | 36.1 nM | 15 nM | 0.56 nM
C[C@H]1Oc2cc(cnc2N)-c2cc(S(C)(=O)=O)ccc2CN(C)Cc2ccc(F)cc21 [Example 35, (5R)-3-fluoro-5,17-dimethyl-13-(methylsulfonyl)-5,16,17,18-tetrahydro-7,11-(metheno)dibenzo[g,l][1,4,10]oxadiazacyclotetradecin-8-amine] | 14.3 nM | 0.98 nM | 1.1 nM | < 0.261 nM
C[C@H]1Oc2cc(cnc2N)-c2c(nn(C)c2C#N)CN(C)Cc2ccc(F)cc21 [Example 36, (10R)-7-amino-12-fluoro-2,10,16-trimethyl-10,15,16,17-tetrahydro-2H-4,8-(metheno)pyrazolo[4,3-h][2,5,11]benzoxadiazacyclotetradecine-3-carbonitrile] | 2.64 nM | 0.18 nM | 0.56 nM | < 0.2 nM
Cc1n[nH]c2c1-c1cnc(N)c(c1)OCc1cc(F)ccc1OCCC2 [Example 38, 12-fluoro-3-methyl-1,16,17,18-tetrahydro-10H-8,4-(metheno)pyrazolo[3,4-e][1,12,9]benzodioxazacyclopentadecin-7-amine] | 201 nM | 12 nM | 5.7 nM | 0.61 nM
CCCn1nnc2c1-c1cnc(N)c(c1)O[C@H](C)c1cc(F)ccc1C(=O)N(C)C2 [Example 41, (10R)-7-amino-12-fluoro-10,16-dimethyl-3-propyl-16,17-dihydro-3H-8,4-(metheno)[1,2,3]triazolo[4,5-h][2,5,11]benzoxadiazacyclotetradecin-15(10H)-one] | 680 nM | 33.1 nM | 19 nM | 1.5 nM
CN1Cc2nn(C)c(C#N)c2-c2cnc(N)c(n2)OCc2cc(F)ccc2C1=O [Example 46, 7-amino-12-fluoro-2,16-dimethyl-15-oxo-10,15,16,17-tetrahydro-2H-8,4-(azeno)pyrazolo[4,3-h][2,5,11]benzoxadiazacyclotetradecine-3-carbonitrile] | 44.7 nM | 10.4 nM | 1.1 nM | 0.15 nM
CCc1onc2c1-c1cnc(N)c(n1)O[C@H](C)c1cc(F)ccc1C(=O)N(C)C2 [Example 48, (10R)-7-amino-3-ethyl-12-fluoro-10,16-dimethyl-16,17-dihydro-8,4-(azeno)[1,2]oxazolo[4,3-h][2,5,11]benzoxadiazacyclotetradecin-15(10H)-one] | 68.9 nM | 6.75 nM | 1.2 nM | 0.2 nM
CCn1ncc2c1-c1cnc(N)c(n1)O[C@H](C)c1cc(F)ccc1C(=O)N(C)C2 [Example 49, (10R)-7-amino-3-ethyl-12-fluoro-10,16-dimethyl-16,17-dihydro-3H-8,4-(azeno)pyrazolo[3,4-h][2,5,11]benzoxadiazacyclotetradecin-15(10H)-one] | 80.8 nM | 4.08 nM | 1.5 nM | 0.17 nM
C[C@H]1Oc2cc(cnc2N)-c2c(nc3ccccn23)CN(C)C(=O)c2ccc(F)cc21 [Example 50, (5R)-8-amino-3-fluoro-5,19-dimethyl-18,19-dihydro-7,11-(metheno)pyrido-[2′,1′:2,3]imidazo[4,5-h][2,5,11]benzoxadiazacyclotetradecin-20(5H)-one] | 29.7 nM | 2.37 nM | 1.2 nM | 0.14 nM
COc1snc2c1-c1cnc(N)c(n1)O[C@H](C)c1cc(F)ccc1C(=O)N(C)C2 [Example 51, (10R)-7-amino-12-fluoro-3-methoxy-10,16-dimethyl-16,17-dihydro-8,4-(azeno)[1,2]thiazolo[4,3-h][2,5,11]benzoxadiazacyclotetradecin-15(10H)-one] | 6.25 nM | 0.95 nM | 0.28 nM | 0.13 nM
C[C@H]1Oc2cc(cnc2N)-c2c(nn(C)c2C#N)CN(C2CC2)C(=O)c2ccc(F)cc21 [Example 55, (10R)-7-amino-16-cyclopropyl-12-fluoro-2,10-dimethyl-15-oxo-10,15,16,17-tetrahydro-2H-8,4-(metheno)pyrazolo[4,3-h][2,5,11]benzoxadiazacyclotetradecine-3-carbonitrile] | 13.4 nM | 1.03 nM | 0.24 nM | < 0.07 nM
CC1Cc2cc(cnc2N)-c2c(nn(C)c2C#N)CN(C)C(=O)c2ccc(F)cc21 (stereo not shown) [Example 61, 7-amino-12-fluoro-2,10,16-trimethyl-15-oxo-2,9,10,15,16,17-hexahydro-8,4-(metheno)pyrazolo[3,4-d][2,8]benzodiazacyclotetradecine-3-carbonitrile] | 17.1 nM | 4.82 nM | 0.17 nM | 0.15 nM
CC1Cc2cc(cnc2N)-c2c(nn(C)c2C(N)=O)CN(C)C(=O)c2ccc(F)cc21 (stereo not shown) [Example 62, 7-amino-12-fluoro-2,10,16-trimethyl-15-oxo-2,9,10,15,16,17-hexahydro-8,4-(metheno)pyrazolo[3,4-d][2,8]benzodiazacyclotetradecine-3-carboxamide] | > 10000 nM | 7610 nM | 253 nM | 137 nM
CC1Oc2nc(cnc2N)-c2c(C#N)nn3c2C(CC3)N(C)C(=O)c2ccc(F)cc21 [Example 74, (9R)-6-amino-11-fluoro-9,15-dimethyl-14-oxo-9,14,15,15a,16,17-hexahydro-7,3-(azeno)-8-oxa-1,5,15,17a-tetraazabenzo[11,12]cyclotetradeca[1,2,3-cd]pentalene-2-carbonitrile] | 51.9 nM | 11.4 nM | 0.86 nM | 0.3 nM
CC1Oc2nc(cnc2N)-c2c(C#N)nn3c2C(CC3)N(C)C(=O)c2ccc(F)cc21 [Example 75, (9R)-6-amino-11-fluoro-9,15-dimethyl-14-oxo-9,14,15,15a,16,17-hexahydro-7,3-(azeno)-8-oxa-1,5,15,17a-tetraazabenzo[11,12]cyclotetradeca[1,2,3-cd]pentalene-2-carbonitrile] | 7.06 nM | 0.902 nM | 0.095 nM | 0.065 nM
CC1c2nn(C)c(C#N)c2-c2cnc(N)c(n2)OCc2cc(F)ccc2C(=O)N1C (stereo not shown) [Example 78, 7-amino-12-fluoro-2,16,17-trimethyl-15-oxo-10,15,16,17-tetrahydro-2H-8,4-(azeno)pyrazolo[4,3-h][2,5,11]benzoxadiazacyclotetradecine-3-carbonitrile] | 350 nM | 40.8 nM | 9.61 nM | 2.93 nM
C[C@H]1Oc2nc(cnc2N)-c2c(nn(CC(F)F)c2C#N)CN(C)C(=O)c2ccc(F)cc21 [Example 91, (10R)-7-amino-2-(2,2-difluoroethyl)-12-fluoro-10,16-dimethyl-15-oxo-10,15,16,17-tetrahydro-2H-8,4-(azeno)pyrazolo[4,3-h][2,5,11]benzoxadiazacyclotetradecine-3-carbonitrile] | 5.88 nM | 0.68 nM | 0.315 nM | 0.177 nM
CC(C)n1nc2c(c1C#N)-c1cnc(N)c(n1)O[C@H](C)c1cc(F)ccc1C(=O)N(C)C2 [Example 92, (10R)-7-amino-12-fluoro-10,16-dimethyl-15-oxo-2-(propan-2-yl)-10,15,16,17-tetrahydro-2H-8,4-(azeno)pyrazolo[4,3-h][2,5,11]benzoxadiazacyclotetradecine-3-carbonitrile] | 3.66 nM | 0.47 nM | 0.21 nM | 0.23 nM
C[C@H]1Oc2nc(cnc2N)-c2c(nn(C3COC3)c2C#N)CN(C)C(=O)c2ccc(F)cc21 [Example 93, (10R)-7-amino-12-fluoro-10,16-di methyl-2-(oxetan-3-yl)-15-oxo-10,15,16,17-tetrahydro-2H-8,4-(azeno) pyrazolo[4,3-h][2,5,11]benzoxadiazacyclotetradecine-3-carbonitrile] | 31.7 nM | 3.23 nM | 0.3 nM | 0.048 nM
CCc1snc2c1-c1cnc(N)c(c1)O[C@H](C)c1cc(F)ccc1C(=O)N(C)C2 [Example 110, (10R)-7-amino-3-ethyl-12-fluoro-10,16-dimethyl-16,17-dihydro-8,4-(metheno)[1,2]thiazolo[4,3-h][2,5,11]benzoxadiazacyclotetradecin-15(10H)-one] | 447 nM | 9.99 nM | 7.3 nM | 0.56 nM
COc1noc2c1-c1cnc(N)c(c1)O[C@H](C)c1cc(F)ccc1C(=O)N(C)C2 [Example 111, (10R)-7-amino-12-fluoro-3-methoxy-10,16-dimethyl-16,17-dihydro-8,4-(metheno)[1,2]oxazolo[4,5-h][2,5,11]benzoxadiazacyclotetradecin-15(10H)-one] | 32.5 nM | 1.42 nM | 0.54 nM | 0.059 nM
CCc1nsc2c1-c1cnc(N)c(c1)O[C@H](C)c1cc(F)ccc1C(=O)N(C)C2 [Example 112, (10R)-7-amino-3-ethyl-12-fluoro-10,16-dimethyl-16,17-dihydro-8,4-(metheno)[1,2]thiazolo[4,5-h][2,5,11]benzoxadiazacyclotetradecin-15(10H)-one] | 248 nM | 9.67 nM | 3.4 nM | 0.32 nM

Source: patent publication US8680111B2 (Pfizer Inc., priority 2012, dated 2014)
